Test results as given in US11439628B2, “Use of non-steroidal mineralocorticoid receptor antagonists alone or in combination for the treatment of muscular or neuromuscular diseases” (Bayer Aktiengesellschaft, priority 2018, dated 2022).

Experiments:
MDX-mice [1] = assay: Endocardial circumferential peak systolic strain rate at the base of the heart (MRI, vector-based tracking); type: in vivo; settings: for Effect on heart function (systolic strain rate), in words: MDX-mice treated 16 weeks; for Base_PeakSysSR_Lat (endocardial circumferential S−1) / Base_PeakSysSR_Mean (endocardial circumferential S−1) / Base_PeakSysSR_Septum (endocardial circumferential S−1): MDX-mice treated 16 weeks via chow (150 ppm BAY 41-2272 or 100 ppm Finerenone), base of the heart, Mean ± SEM; for Base_PeakSysSR_Lat (endocardial circumferential S−1): lateral; for Base_PeakSysSR_Mean (endocardial circumferential S−1): mean; for Base_PeakSysSR_Septum (endocardial circumferential S−1): septum
Text: (§1) Preferentially mice were used, especially transgenic mice (B6.Cg-^Terctm1Rdp Dmd^mdx-4Cv/BlauJ; Jackson Laboratories, strain Nr.: 023535; Dystrophin-deficient, utrophin haplo-insufficient (utrn +/−; mdx)). These so called MDX mice carry a mutation in the dystrophin gene which reflects the phenotype and clinical situation of patients with muscular dystrophies (Sacco et al.; Cell. 2010 Dec. 23; 143(7):1059-71, Mourkioti et al. Nat Cell Biol. 2013 August; 15(8):895-904).
(§2) As read-outs were preferentially used: • In vitro, hydroxyproline measurement to assess fibrotic tissue. To analyze the collagen content in tissue samples, hydroxyproline assays were performed. After digestion of the tissue (e.g. heart and muscle) in 6M HCl for three hours at 120° C., chloramine T (0.06 M) was added and samples were mixed and incubated for 20 min at room temperature. 3.15 M perchloric acid and 20% p-dimethylaminobenzaldehyde were added and samples were incubated for additional 20 min at 60° C. The absorbance was determined at 557 nm. • In vitro, semiquantitative RT/PCR (TaqMan PCR) was used to assess gene expression. Mice were euthanized and hearts and muscles (e.g. EDL=extensor digitorum longus muscle, diaphragm) were collected. Total RNA was isolated and gene expression was semiquantified after reverse transcription (RT) reaction via TaqMan polymerase chain reaction (PCR). • In vitro, histopathology to assess heart and muscle damage. Mice were euthanized and hearts and muscles (e.g. EDL, diaphragm) were collected. Cryosections were prepared and stained with Hematoxylin and Eosin (H&E) to assess overall histopathology. • Ex vivo, contractility measurements of muscle contraction in isolated muscles (e.g. EDL, diaphragm) to assess muscle function and contractility. Isolated muscles were stretched to optimal length using twitch contractions (evoked by a single 4 ms pulse). After 10 minutes, a tetanus contraction was performed (150 Hz for 250 ms). After another 5 min rest period, 6 eccentric contractions (150 Hz for 450 ms, subjected to a 3% stretch for the final 200 ms of contraction) were done with two minutes of rest between the first 5 stimulations and 15 minutes of rest between the fifth and sixth stimulation. • In vivo, non-invasive echocardiography and computer tomography to assess heart and cardiovascular function. Mice were anaesthetized and heart structure and function was assessed non-invasively by using the echocardiograph type Vevo2100. In addition, cardiac function was investigated in anesthetized mice by using magnetic resonance imaging (MRI) technique on a 9.4 or 11.7 Tesla 30 mm bore system (Bruker Biospin) together with standard electrocardiographic (ECG). Myocardial strain and strain rate were assessed using vector-based tracking software (Vector Velocity Imaging, Siemens). • In vivo, invasive left-ventricular function and pressure-volume relationship to assess heart and cardiovascular function. Invasive left-ventricular hemodynamics were performed in anaesthetized mice using a pressure catheter and a PN loop catheter. • In vivo assessment of muscle force (Hanging wire test, four limb hanging test, grip strength test) to asses muscle function. For the hanging wire and four limb hanging test, conscious mice are freely hanging on a grid and hanging time is recorded and corrected for body weight of the mice. The grip strength (GS) measurements to investigate front-leg muscle strength were performed in conscious mice by using a grip strength meter (Columbus Instruments). Mice were trained to hold on with their front paws on a wire mesh grid and carefully pulled backwards. This procedure was repeated up to 5 times with one minute breaks between measurements and the maximal power in Newton (N) was registered. The highest grid strength value (GS) in Newton was reported and related to body weight (BW) in mg. […] (Table 1). • In vivo assessment of physical capacity was assessed. […]

MDX-mice [2] = assay: EDL eccentric contractions (ex vivo contractility of isolated muscle from treated mice); type: in vivo; settings: for Ecc2 (% Ecc1) / Ecc5 (% Ecc1) / Post-rest Ecc6 (% Ecc1): EDL of MDX-mice treated 16 weeks via chow (150 ppm BAY 41-2272 or 100 ppm Finerenone), Mean ± SEM; for Ecc2 (% Ecc1): 2nd eccentric contraction; for Ecc5 (% Ecc1): 5th eccentric contraction; for Post-rest Ecc6 (% Ecc1): 6th eccentric contraction after 15 minutes of rest; for Effect on muscle strength (EDL eccentric contractions), in words: MDX-mice treated 16 weeks
Text: as §1, §2

MDX-mice [3] = assay: Grip strength test (front-leg muscle strength) in MDX mice; type: in vivo; settings: for GS/BW trial 5 / GS/BW trial 1 / Grip Strength trial 1 / Grip Strength trial 5: MDX-mice treated 16 weeks via chow (150 ppm BAY 41-2272 or 100 ppm Finerenone), Mean ± SEM; for GS/BW trial 5 / GS/BW trial 1: grip strength related to body weight; for GS/BW trial 5: fatigued mice; for GS/BW trial 1: rested mice; for Grip Strength trial 1: highest force from rested mice; for Grip Strength trial 5: highest force in fatigued mice; for Effect on muscle strength (grip strength), in words: MDX-mice treated 16 weeks, each compound alone; for Efficacy of monotherapy compared with combination of steroidal MR antagonist (spironolactone) and ACE inhibitor (lisinopril): regarding grip strength, base myocardial strain rate and forces after lengthening contractions of the EDL, comparator from Lowe et al.
Text: as §1, §2

[4] = rats, [14C]-labeled; Kolkhof et al. 2014; cited from earlier work
DMD boys = settings: added to background ACE inhibitor or ARB therapy; at 12 months; Raman et al. 2015; cited from earlier work

Row | SMILES | Effect on heart function (systolic strain rate), in words (MDX-mice [1]) | Base_PeakSysSR_Lat (endocardial circumferential S−1) (MDX-mice [1]) [S−1] | Base_PeakSysSR_Mean (endocardial circumferential S−1) (MDX-mice [1]) [S−1] | Base_PeakSysSR_Septum (endocardial circumferential S−1) (MDX-mice [1]) [S−1] | Ecc2 (% Ecc1) (MDX-mice [2]) | Ecc5 (% Ecc1) (MDX-mice [2]) | Post-rest Ecc6 (% Ecc1) (MDX-mice [2]) | Effect on muscle strength (EDL eccentric contractions), in words (MDX-mice [2]) | GS/BW trial 5 (MDX-mice [3]) [mN/g] | GS/BW trial 1 (MDX-mice [3]) [mN/g] | Grip Strength trial 1 (MDX-mice [3]) [N] | Grip Strength trial 5 (MDX-mice [3]) [N] | Effect on muscle strength (grip strength), in words (MDX-mice [3]) | Tissue distribution into cardiac and kidney tissues [4] | Efficacy of monotherapy compared with combination of steroidal MR antagonist (spironolactone) and ACE inhibitor (lisinopril) (MDX-mice [3]) | Efficacy of monotherapy compared with combination of steroidal MR antagonist (spironolactone) and ACE inhibitor (lisinopril) (MDX-mice [3]; listed as (S)-4-(4-Cyano-2-methoxyphenyl)-5-ethoxy-2,8-dimethyl-1,4-dihydro-1,6-naphthyrid) | Effect on left ventricular systolic function (LV circumferential strain) (DMD boys)
1 | Nc1nc(-c2nn(Cc3ccccc3F)c3ncccc23)ncc1C1CC1 [BAY41-2272, 3-(4-amino-5-cyclopropylpyrimidin-2-yl)-1-(2-fluorobenzyl)-1H-pyrazolo[3,4-b]pyridine] | attenuation of heart function decline | 0.37 ± 0.02 | 0.36 ± 0.02 | 0.39 ± 0.03 | 86 ± 2 | 60 ± 5 | 60 ± 5 | improvement of muscle strength | 33.9 ± 0.9 | 38.3 ± 1.1 | 1.0 ± 0.04 | 0.9 ± 0.04 | improvement of muscle strength | – | – | – | –
2 | CCOc1ncc(C)c2c1[C@H](c1ccc(C#N)cc1OC)C(C(N)=O)=C(C)N2 [Finerenone, (S)-4-(4-Cyano-2-methoxyphenyl)-5-ethoxy-2,8-dimethyl-1,4-dihydro-1,6-naphthyridin-3-carboxamid] | attenuation of heart function decline | 0.39 ± 0.04 | 0.35 ± 0.03 | 0.34 ± 0.04 | 94 ± 5 | 71 ± 7 | 72 ± 6 | improvement of muscle strength | 37.5 ± 1.1 | 40.3 ± 1 | 1.1 ± 0.04 | 1.1 ± 0.04 | improvement of muscle strength | balanced distribution | superior | as effective as | –
3 | COC(=O)[C@@H]1CC2=CC(=O)CC[C@]2(C)[C@@]23O[C@@H]2C[C@@]2(C)[C@@H](CC[C@@]24CCC(=O)O4)[C@H]13 [eplerenone] | – | – | – | – | – | – | – | – | – | – | – | – | – | – | – | – | attenuates the progressive decline in left ventricular systolic function
